{
  "source": "patent US20120034193A1",
  "about": "“TREATMENT OF NEUROTROPHIC FACTOR MEDIATED DISORDERS” (priority 2009, published 2012)",
  "key": {"[1]": {"system": "rat primary cortical neurones", "assay": "ChAT positive neurones and neurite outgrowth after β-amyloid exposure", "assay_type": "cell-based", "conditions": "10 μM pre-incubation 48 h, then β-amyloid 10 μg/ml 48 h", "procedure": "Rat cortical neurones were cultured by modification of a method previously described (Eckenstein and Sofroniew, Journal of Neuroscience, 1983, 3, pp. 2286-2291). On day 8, the culture medium was changed to a medium containing vehicle (DMSO, 0.5%) or smilagenin or sarsasapogenin (10 μM). On day 10, rat primary cortical neurones were exposed to β-amyloid (10 μg/ml) for 48 h at 37° C. and the concentration of BDNF in the culture medium, the number of choline acetyltransferase (ChAT) positive cells, and the neurite outgrowth was measured (smilagenin only)."}, "Rat sensory neurones": {"system": "Rat sensory neurones", "assay": "Neuronal survival in sensory neurones", "assay_type": "cell-based, Wistar rat", "conditions": "2 days", "procedure": "Rat sensory neurones were obtained from Wistar rat embryos on the 15th day of gestation. Cells were cultured at 37° C. in 5% CO2/95% air atmosphere. Following 2 days of culturing with sarsasapogenin, smilagenin, vehicle (DMSO, 0.25%) or NGF, sensory neurones were rinsed twice with PBS and fixed in paraformaldehyde (4%) in PBS for 30 min at 4° C. Cells were permeabilised with Triton X-100 (0.1%) and non-specific sites were saturated using foetal bovine serum. Prior to staining, cells were incubated for 2 h at room temperature with a mixture of primary antibodies: anti-neurofilament 68 and 200 in PBS containing foetal bovine serum 5%. Prior to washing, slides were demounted and the cells were washed twice with PBS for 5 min, placed in a dark room for 1 h and incubated with a secondary antibody: anti-mouse coupled with cyanine 3 (Cy3; 1/1600) and an anti-rabbit coupled with fluoroisothiocyanate (FITC; 1/200) in PBS containing foetal bovine serum (5%). Slides were washed twice with PBS for 5 min and mounted on coverslips using Mowiol, an antioxidative solution (9% w/v) in glycerol (22%) buffered with Tris/HCl ([…]; pH 8.5). Slides were left overnight at room temperature to harden and stored in light protected conditions. Slides were viewed using a DAPI/FITC/Cy3 triple filter microscope with a ×20 objective. A series of photographs per well were taken at random using a digital camera."}, "[2]": {"system": "rat primary cortical neurones", "assay": "Pre-treatment against glutamate-induced damage (LDH) in cortical neurones", "assay_type": "cell-based", "conditions": "for Neuronal survival (% of control): 24 h before and 24 h after glutamate 100 μM 10 min; for Toxicity at the plateau of activity: nanomolar concentration, cortical neurones in vitro", "procedure": "Exposure of rat primary cortical neurones to glutamate increases lactate dehydrogenase (LDH) activity measured 24 h after glutamate exposure, indicating significant neuronal damage. Rat cortical neurones were cultured by modification of a method previously described (Singer, et al., Neuroscience Letters, 1996, 212, pp. 13-16). On day 10 of culture, the medium was changed to a serum-free defined medium. On day 12, the cultures were washed and placed for 24 h in fresh medium containing test compound or vehicle (DMSO, 0.25%). On day 13 neurones were exposed to glutamate (100 μM; 10 min) at 37° C. The cultures were then washed with, and placed in, fresh medium supplemented with test compound or vehicle for a further 24 h before LDH was measured. Neuronal damage was assessed by measuring LDH activity in the media at 24 h after glutamate exposure."}, "Rat cortical neurones": {"system": "Rat cortical neurones", "assay": "Reversal of glutamate-induced damage in cortical neurones", "assay_type": "cell-based", "conditions": "30 nM for 24 h after glutamate 100 μM 10 min", "procedure": "The rat cortical neurones were prepared as detailed above. On day 13, cultures were exposed to glutamate (100 μM) for 10 min at 37° C. in 5% CO2/95% air atmosphere in defined medium. Following the incubation period, the cultures were washed and maintained in fresh medium, containing sarsasapogenin, smilagenin or vehicle. Cells were cultured for a further 24 h after glutamate exposure and were then assessed for neuronal damage as detailed above."}, "[3]": {"system": "Rat primary dopaminergic neurones", "assay": "Reversal of MPP+-induced damage in dopaminergic neurones", "assay_type": "cell-based", "conditions": "30 nM for 48 h after MPP+ 2 μM 24 h", "procedure": "Rat primary dopaminergic neurones were prepared as described above. On day 5, MPP^+ (2 μM) was added to the cultures for 24 h in culture medium at 37° C. in 5% CO2/95% air atmosphere. Exposure of rat primary dopaminergic neurones to MPP^+ (2 μM, 24 h) causes a significant decrease in the number of dopaminergic neurones compared to the control. On day 6 the medium was removed and fresh medium containing vehicle (DMSO, 0.25%), sarsasapogenin, smilagenin or a combinations of BDNF and GDNF was added. After 48 h, the extent of dopaminergic damage was determined as detailed above."}, "[4]": {"system": "Old Sprague Dawley (SD) rats", "assay": "Y-maze learning and memory in aged rats", "assay_type": "in vivo, Rat", "conditions": "18 mg/kg/day oral; for Learning ability (correct response/total time): 2 months, aged 2.39, young 5.97; for Memory ability (correct response/total time): 3 months, aged 2.16, young 5.27; for Anxiety (Y-maze): up to 3 months", "procedure": "Old Sprague Dawley (SD) rats (20 month old) were orally administered sarsasapogenin or smilagenin (18 mg/kg/day) for 3 months. Young SD rats (4 month old) were used as healthy positive control and old SD rats (20 month old) were used as neurodegenerative control. A Y-maze was used to assess learning and memory, and was considered also a model of anxiety in light of the nature of the test that caused distress to the animal. On the floor of each arm of the Y-maze was an array of copper rods (2 mm×140 mm) to which an adjustable voltage electric current was applied when needed. Each arm was 450 mm long with a 15 W lamp at the end. Following 2 months of treatment each rat was trained for 7 consecutive days, once on each day. During each training session, a rat was put into one arm of the Y-maze and after 2 min an electrical current applied to the copper rods in the anti-clockwise arm and the lamp of the clockwise arm was illuminated, indicating the non-electrified area. If the rat went into the illuminated arm a correct response was recorded, otherwise a wrong response was recorded. This stimulation-response test was repeated 20 times each day, with a pause of 5 s between each test. The number of correct responses and the total time period for the 20 tests were recorded. A quotient of the number of correct responses divided by the total response time was calculated and used as an index for learning ability, with the higher the quotient the greater the learning ability. One month after the learning test (3 months of treatment) the Y-maze test was carried out again and the quotient obtained was used as an index for memory ability. At the end of the treatment the rats were killed and the brains removed for quantification of BDNF using an ELISA (data of BDNF presented in Example 3 above)."}, "[5]": {"assay": "Long term oral toxicity study, non-rodents", "assay_type": "in vivo", "conditions": "high doses"}},
  "data": [
    {"molecule": "C[C@H]1CC[C@@]2(OC1)O[C@H]1C[C@H]3[C@@H]4CC[C@@H]5C[C@@H](O)CC[C@]5(C)[C@H]4CC[C@]3(C)[C@H]1[C@@H]2C", "note": "[Sarsasapogenin, sarsasapogenin]", "values": [
      {"measurement": "Number of ChAT positive neurones per field (% of control)", "setting": "[1]", "value": "71.6 ± 3.7 % of control"},
      {"measurement": "Neuronal survival (% of control)", "setting": "Rat sensory neurones; 30 nM", "value": "130.83 ± 1.75 % of control"},
      {"measurement": "Neuronal survival (% of control)", "setting": "[2]; 1 nM", "value": "76.88 ± 2.79 % of control"},
      {"measurement": "Neuronal survival (% of control)", "setting": "[2]; 3 nM", "value": "77.23 ± 2.62 % of control"},
      {"measurement": "Neuronal survival (% of control)", "setting": "[2]; 10 nM", "value": "73.50 ± 3.05 % of control"},
      {"measurement": "Neuronal survival (% of control)", "setting": "[2]; 30 nM", "value": "78.91 ± 2.97 % of control"},
      {"measurement": "Neuronal survival (% of control)", "setting": "[2]; 100 nM", "value": "76.30 ± 4.15 % of control"},
      {"measurement": "Toxicity at the plateau of activity", "setting": "[2]", "value": "without causing any toxicity"},
      {"measurement": "Neuronal survival (% of control)", "setting": "Rat cortical neurones", "value": "103.43 ± 5.10 % of control"},
      {"measurement": "Neuronal survival (% of control)", "setting": "[3]", "value": "104.30 ± 5.63 % of control"},
      {"measurement": "Learning ability (correct response/total time)", "setting": "[4]", "value": "5.02 ± 0.50 correct response/total time"},
      {"measurement": "Memory ability (correct response/total time)", "setting": "[4]", "value": "4.66 ± 0.34 correct response/total time"},
      {"measurement": "Anxiety (Y-maze)", "setting": "[4]", "value": "reduce the anxiety"},
      {"measurement": "Long term toxicity", "setting": "[5]; 39 weeks in non-rodents", "value": "without showing any signs of toxicity or adverse events"}
    ]},
    {"molecule": "C[C@@H]1CC[C@@]2(OC1)O[C@H]1C[C@H]3[C@@H]4CC[C@@H]5C[C@@H](O)CC[C@]5(C)[C@H]4CC[C@]3(C)[C@H]1[C@@H]2C", "note": "[Smilagenin, smilagenin]", "values": [
      {"measurement": "Neurite outgrowth (% of control)", "setting": "[1]", "value": "85.8 ± 4.0 % of control"},
      {"measurement": "Number of ChAT positive neurones per field (% of control)", "setting": "[1]", "value": "70.1 ± 9.6 % of control"},
      {"measurement": "Neuronal survival (% of control)", "setting": "Rat sensory neurones; 300 nM", "value": "124.02 ± 7.64 % of control"},
      {"measurement": "Neuronal survival (% of control)", "setting": "[2]; 1 nM", "value": "81.53 ± 1.66 % of control"},
      {"measurement": "Neuronal survival (% of control)", "setting": "[2]; 3 nM", "value": "78.19 ± 1.85 % of control"},
      {"measurement": "Neuronal survival (% of control)", "setting": "[2]; 10 nM", "value": "82.50 ± 1.00 % of control"},
      {"measurement": "Neuronal survival (% of control)", "setting": "[2]; 30 nM", "value": "89.86 ± 3.55 % of control"},
      {"measurement": "Neuronal survival (% of control)", "setting": "[2]; 100 nM", "value": "82.45 ± 2.18 % of control"},
      {"measurement": "Toxicity at the plateau of activity", "setting": "[2]", "value": "without causing any toxicity"},
      {"measurement": "Neuronal survival (% of control)", "setting": "Rat cortical neurones", "value": "111.06 ± 3.40 % of control"},
      {"measurement": "Neuronal survival (% of control)", "setting": "[3]", "value": "113.44 ± 4.62 % of control"},
      {"measurement": "Learning ability (correct response/total time)", "setting": "[4]", "value": "4.81 ± 0.32 correct response/total time"},
      {"measurement": "Memory ability (correct response/total time)", "setting": "[4]", "value": "4.58 ± 0.26 correct response/total time"},
      {"measurement": "Anxiety (Y-maze)", "setting": "[4]", "value": "reduce the anxiety"},
      {"measurement": "Long term toxicity", "setting": "[5]; up to 52 weeks in non-rodents", "value": "without showing any signs of toxicity or adverse events"}
    ]}
  ]
}
